From US11474105B2, “Methods and compositions for SIRT1 expression as a marker for endometriosis and subfertility” (The University of North Carolina at Chapel Hill, priority 2016, dated 2022) come the findings set out here.

The test deals with BCL6 positive individuals. As to the kind of experiment: IVF ovum transfer or frozen embryo transfer after pretreatment. Type of test: in vivo. The settings on record: pretreatment for two months prior to transfer, compared to no treatment, p<0.0001. How it is done: In vitro fertilized (IVF) ovum transfer or frozen embryo transfer was carried out in BCL6 positive individuals. There were three treatment groups: no treatment prior to transfer, laparoscopy with treatment of endometriosis prior to transfer and GnRH agonist suppression (Lupron) pretreatment for two months prior to transfer.

For `CCNC(=O)[C@@H]1CCCN1C(=O)[C@H](CCCNC(=N)N)NC(=O)[C@H](CC(C)C)NC(=O)[C@@H](CC(C)C)NC(=O)[C@H](Cc1ccc(O)cc1)NC(=O)[C@H](CO)NC(=O)[C@H](Cc1c[nH]c2ccccc12)NC(=O)[C@H](Cc1c[nH]cn1)NC(=O)[C@@H]1CCC(=O)N1` [Lupron, leuprolide acetate], the time to pregnancy result is given as “significantly better” and the transplantation rate result is “significantly better”.
